According to the NIST ThermoML archive (doi:10.1021/acs.jced.8b00692):
Numbers after ± are expanded uncertainties.

Experiment: xn = mol fraction of the nth substance listed
Settings: 102 kPa, Liquid; for viscosity: Concentric cylinders viscometry; for speed of sound: Frequency=3 MHz, Single path-length method; for mass density: Vibrating tube method

In the case of CCCCCCCC1CCCCC1 [heptylcyclohexane] + CCCCCCCCCCCCCCCC, the viscosity (293.15 K, x1 = 0.1997) is reported as 3.34 ± 0.02 mPa·s, the viscosity (293.15 K, x1 = 0.4002) is reported as 3.2 ± 0.02 mPa·s and the viscosity (293.15 K, x1 = 0.5001) is reported as 3.13 ± 0.02 mPa·s. For the same molecule, the viscosity (293.15 K, x1 = 0.6006) was 3.05 ± 0.02 mPa·s, the viscosity (293.15 K, x1 = 0.7998) was 2.92 ± 0.02 mPa·s and the viscosity (293.15 K, x1 = 1) was 2.8 ± 0.02 mPa·s. It also gave a speed of sound (293.15 K, x1 = 0.1997) of 1358.9 ± 0.7 m/s, a speed of sound (293.15 K, x1 = 0.4002) of 1362 ± 0.7 m/s and a speed of sound (293.15 K, x1 = 0.5001) of 1363.4 ± 0.7 m/s. It also gave a speed of sound (293.15 K, x1 = 0.6006) of 1365.3 ± 0.7 m/s, a speed of sound (293.15 K, x1 = 0.7998) of 1368.8 ± 1.1 m/s and a speed of sound (293.15 K, x1 = 1) of 1374.4 ± 0.8 m/s. It also gave a mass density (293.15 K, x1 = 0.1997) of 779.33 ± 0.81 kg/m3, a mass density (293.15 K, x1 = 0.4002) of 785.92 ± 0.81 kg/m3 and a mass density (293.15 K, x1 = 0.5001) of 789.55 ± 0.81 kg/m3. The mass density (293.15 K, x1 = 0.6006) was 793.34 ± 0.81 kg/m3, the mass density (293.15 K, x1 = 0.7998) was 801.63 ± 0.81 kg/m3 and the mass density (293.15 K, x1 = 1) was 810.99 ± 0.81 kg/m3. For the same molecule, the viscosity (303.15 K, x1 = 0.1997) was 2.66 ± 0.02 mPa·s, the viscosity (303.15 K, x1 = 0.4002) was 2.56 ± 0.02 mPa·s and the viscosity (303.15 K, x1 = 0.5001) was 2.51 ± 0.02 mPa·s. It also gave a viscosity (303.15 K, x1 = 0.6006) of 2.45 ± 0.02 mPa·s, a viscosity (303.15 K, x1 = 0.7998) of 2.35 ± 0.02 mPa·s and a viscosity (303.15 K, x1 = 1) of 2.26 ± 0.02 mPa·s. It also gave a speed of sound (303.15 K, x1 = 0.1997) of 1321.7 ± 0.7 m/s, a speed of sound (303.15 K, x1 = 0.4002) of 1324.4 ± 0.7 m/s and a speed of sound (303.15 K, x1 = 0.5001) of 1326.1 ± 0.7 m/s. For the same molecule, the speed of sound (303.15 K, x1 = 0.6006) was 1327.5 ± 0.7 m/s, the speed of sound (303.15 K, x1 = 0.7998) was 1331.3 ± 1.1 m/s and the speed of sound (303.15 K, x1 = 1) was 1336.1 ± 0.8 m/s. For the same molecule, the mass density (303.15 K, x1 = 0.1997) was 772.4 ± 0.81 kg/m3, the mass density (303.15 K, x1 = 0.4002) was 778.99 ± 0.81 kg/m3 and the mass density (303.15 K, x1 = 0.5001) was 782.6 ± 0.81 kg/m3. For the same molecule, the mass density (303.15 K, x1 = 0.6006) was 786.39 ± 0.81 kg/m3, the mass density (303.15 K, x1 = 0.7998) was 794.64 ± 0.81 kg/m3 and the mass density (303.15 K, x1 = 1) was 803.96 ± 0.81 kg/m3. For the same molecule, the viscosity (313.15 K, x1 = 0.1997) was 2.17 ± 0.02 mPa·s, the viscosity (313.15 K, x1 = 0.4002) was 2.08 ± 0.02 mPa·s and the viscosity (313.15 K, x1 = 0.5001) was 2.05 ± 0.02 mPa·s. For the same molecule, the viscosity (313.15 K, x1 = 0.6006) was 2.01 ± 0.02 mPa·s, the viscosity (313.15 K, x1 = 0.7998) was 1.93 ± 0.02 mPa·s and the viscosity (313.15 K, x1 = 1) was 1.86 ± 0.02 mPa·s. For the same molecule, the speed of sound (313.15 K, x1 = 0.1997) was 1285.1 ± 0.7 m/s, the speed of sound (313.15 K, x1 = 0.4002) was 1287.5 ± 0.7 m/s and the speed of sound (313.15 K, x1 = 0.5001) was 1289.4 ± 0.7 m/s. It also gave a speed of sound (313.15 K, x1 = 0.6006) of 1290.6 ± 0.7 m/s, a speed of sound (313.15 K, x1 = 0.7998) of 1294.3 ± 1.1 m/s and a speed of sound (313.15 K, x1 = 1) of 1298.7 ± 0.8 m/s. The mass density (313.15 K, x1 = 0.1997) was 765.47 ± 0.81 kg/m3, the mass density (313.15 K, x1 = 0.4002) was 772.06 ± 0.81 kg/m3 and the mass density (313.15 K, x1 = 0.5001) was 775.66 ± 0.81 kg/m3. It also gave a mass density (313.15 K, x1 = 0.6006) of 779.44 ± 0.81 kg/m3, a mass density (313.15 K, x1 = 0.7998) of 787.98 ± 0.81 kg/m3 and a mass density (313.15 K, x1 = 1) of 796.93 ± 0.81 kg/m3. For the same molecule, the viscosity (323.15 K, x1 = 0.1997) was 1.8 ± 0.01 mPa·s, the viscosity (323.15 K, x1 = 0.4002) was 1.73 ± 0.01 mPa·s and the viscosity (323.15 K, x1 = 0.5001) was 1.71 ± 0.01 mPa·s. The viscosity (323.15 K, x1 = 0.6006) was 1.67 ± 0.01 mPa·s, the viscosity (323.15 K, x1 = 0.7998) was 1.61 ± 0.01 mPa·s and the viscosity (323.15 K, x1 = 1) was 1.56 ± 0.01 mPa·s. The speed of sound (323.15 K, x1 = 0.1997) was 1249.3 ± 0.7 m/s, the speed of sound (323.15 K, x1 = 0.4002) was 1251.5 ± 0.7 m/s and the speed of sound (323.15 K, x1 = 0.5001) was 1253.4 ± 0.7 m/s. It also gave a speed of sound (323.15 K, x1 = 0.6006) of 1254.5 ± 0.7 m/s, a speed of sound (323.15 K, x1 = 0.7998) of 1258.1 ± 1.1 m/s and a speed of sound (323.15 K, x1 = 1) of 1262.1 ± 0.8 m/s. The mass density (323.15 K, x1 = 0.1997) was 758.54 ± 0.81 kg/m3, the mass density (323.15 K, x1 = 0.4002) was 765.13 ± 0.81 kg/m3 and the mass density (323.15 K, x1 = 0.5001) was 768.71 ± 0.81 kg/m3. For the same molecule, the mass density (323.15 K, x1 = 0.6006) was 772.48 ± 0.81 kg/m3, the mass density (323.15 K, x1 = 0.7998) was 780.65 ± 0.81 kg/m3 and the mass density (323.15 K, x1 = 1) was 789.89 ± 0.81 kg/m3. It also gave a viscosity (333.15 K, x1 = 0.1997) of 1.52 ± 0.01 mPa·s, a viscosity (333.15 K, x1 = 0.4002) of 1.46 ± 0.01 mPa·s and a viscosity (333.15 K, x1 = 0.5001) of 1.45 ± 0.01 mPa·s. The viscosity (333.15 K, x1 = 0.6006) was 1.42 ± 0.01 mPa·s, the viscosity (333.15 K, x1 = 0.7998) was 1.37 ± 0.01 mPa·s and the viscosity (333.15 K, x1 = 1) was 1.33 ± 0.01 mPa·s. The speed of sound (333.15 K, x1 = 0.1997) was 1214.4 ± 0.7 m/s, the speed of sound (333.15 K, x1 = 0.4002) was 1216.7 ± 0.7 m/s and the speed of sound (333.15 K, x1 = 0.5001) was 1218.2 ± 0.7 m/s. For the same molecule, the speed of sound (333.15 K, x1 = 0.6006) was 1219.4 ± 0.7 m/s, the speed of sound (333.15 K, x1 = 0.7998) was 1222.8 ± 1.1 m/s and the speed of sound (333.15 K, x1 = 1) was 1226.5 ± 0.8 m/s. The mass density (333.15 K, x1 = 0.1997) was 751.62 ± 0.81 kg/m3, the mass density (333.15 K, x1 = 0.4002) was 758.19 ± 0.81 kg/m3 and the mass density (333.15 K, x1 = 0.5001) was 761.75 ± 0.81 kg/m3. It also gave a mass density (333.15 K, x1 = 0.6006) of 765.51 ± 0.81 kg/m3, a mass density (333.15 K, x1 = 0.7998) of 773.64 ± 0.81 kg/m3 and a mass density (333.15 K, x1 = 1) of 782.83 ± 0.81 kg/m3. For the same molecule, the viscosity (343.15 K, x1 = 0.1997) was 1.31 ± 0.01 mPa·s, the viscosity (343.15 K, x1 = 0.4002) was 1.25 ± 0.01 mPa·s and the viscosity (343.15 K, x1 = 0.5001) was 1.25 ± 0.01 mPa·s. The viscosity (343.15 K, x1 = 0.6006) was 1.22 ± 0.01 mPa·s, the viscosity (343.15 K, x1 = 0.7998) was 1.18 ± 0.01 mPa·s and the viscosity (343.15 K, x1 = 1) was 1.15 ± 0.01 mPa·s. The mass density (343.15 K, x1 = 0.1997) was 744.7 ± 0.8 kg/m3, the mass density (343.15 K, x1 = 0.4002) was 751.3 ± 0.8 kg/m3 and the mass density (343.15 K, x1 = 0.5001) was 754.8 ± 0.8 kg/m3. For the same molecule, the mass density (343.15 K, x1 = 0.6006) was 758.6 ± 0.8 kg/m3, the mass density (343.15 K, x1 = 0.7998) was 766.7 ± 0.8 kg/m3 and the mass density (343.15 K, x1 = 1) was 775.8 ± 0.8 kg/m3. It also gave a viscosity (353.15 K, x1 = 0.1997) of 1.12 ± 0.01 mPa·s, a viscosity (353.15 K, x1 = 0.4002) of 1.09 ± 0.01 mPa·s and a viscosity (353.15 K, x1 = 0.5001) of 1.07 ± 0.01 mPa·s. For the same molecule, the viscosity (353.15 K, x1 = 0.6006) was 1.06 ± 0.01 mPa·s, the viscosity (353.15 K, x1 = 0.7998) was 1.03 ± 0.01 mPa·s and the viscosity (353.15 K, x1 = 1) was 0.993 ± 0.012 mPa·s. It also gave a mass density (353.15 K, x1 = 0.1997) of 737.7 ± 0.8 kg/m3, a mass density (353.15 K, x1 = 0.4002) of 744.3 ± 0.8 kg/m3 and a mass density (353.15 K, x1 = 0.5001) of 747.8 ± 0.8 kg/m3. For the same molecule, the mass density (353.15 K, x1 = 0.6006) was 751.6 ± 0.8 kg/m3, the mass density (353.15 K, x1 = 0.7998) was 759.6 ± 0.8 kg/m3 and the mass density (353.15 K, x1 = 1) was 768.7 ± 0.8 kg/m3. It also gave a viscosity (363.15 K, x1 = 0.1997) of 1 ± 0.01 mPa·s, a viscosity (363.15 K, x1 = 0.4002) of 0.954 ± 0.012 mPa·s and a viscosity (363.15 K, x1 = 0.5001) of 0.962 ± 0.012 mPa·s. The viscosity (363.15 K, x1 = 0.6006) was 0.932 ± 0.012 mPa·s, the viscosity (363.15 K, x1 = 0.7998) was 0.903 ± 0.012 mPa·s and the viscosity (363.15 K, x1 = 1) was 0.892 ± 0.012 mPa·s. For the same molecule, the mass density (363.15 K, x1 = 0.1997) was 730.8 ± 0.8 kg/m3, the mass density (363.15 K, x1 = 0.4002) was 737.8 ± 0.8 kg/m3 and the mass density (363.15 K, x1 = 0.5001) was 740.7 ± 0.8 kg/m3. It also gave a mass density (363.15 K, x1 = 0.6006) of 744.5 ± 0.8 kg/m3, a mass density (363.15 K, x1 = 0.7998) of 752.6 ± 0.8 kg/m3 and a mass density (363.15 K, x1 = 1) of 761.6 ± 0.8 kg/m3. The viscosity (373.15 K, x1 = 0.1997) was 0.866 ± 0.012 mPa·s, the viscosity (373.15 K, x1 = 0.4002) was 0.845 ± 0.012 mPa·s and the viscosity (373.15 K, x1 = 0.5001) was 0.834 ± 0.012 mPa·s. For the same molecule, the viscosity (373.15 K, x1 = 0.6006) was 0.827 ± 0.012 mPa·s, the viscosity (373.15 K, x1 = 0.7998) was 0.803 ± 0.012 mPa·s and the viscosity (373.15 K, x1 = 1) was 0.776 ± 0.012 mPa·s. For the same molecule, the mass density (373.15 K, x1 = 0.1997) was 723.7 ± 0.8 kg/m3, the mass density (373.15 K, x1 = 0.4002) was 730.3 ± 0.8 kg/m3 and the mass density (373.15 K, x1 = 0.5001) was 733.7 ± 0.8 kg/m3. For the same molecule, the mass density (373.15 K, x1 = 0.6006) was 737.5 ± 0.8 kg/m3, the mass density (373.15 K, x1 = 0.7998) was 745.4 ± 0.8 kg/m3 and the mass density (373.15 K, x1 = 1) was 754.4 ± 0.8 kg/m3.
